Results published in ChEMBL document CHEMBL5724709, “EUbOPEN Chemogenomics Library - IncuCyte” (2024).
Where “and” joins values, the source holds several entries; their conditions need not be identical. Equal values may be shown once.

What was measured:
Assay type in all cases: toxicity, cell-based
HEK-293T = assay: Incucyte cell viability with HEK293T; settings: human, 24 h, 10 µM, compound concentration 10 uM
Fibroblast = assay: Incucyte cell viability with human fibroblast; settings: 24 h, 10 µM, compound concentration 10 uM
U2OS = assay: Incucyte cell viability with U2OS; settings: human, 24 h, 10 µM, compound concentration 10 uM
Further: unitless GR value; below 1 slowed growth and below 0 cell loss.

Structure (SMILES)	Growth Rate (HEK-293T; replicate number 1)	Growth Rate (HEK-293T; replicate number 2)	Growth Rate (Fibroblast; replicate number 1)	Growth Rate (Fibroblast; replicate number 2)	Growth Rate (U2OS; replicate number 1)	Growth Rate (U2OS; replicate number 2)
CC(C)n1nc(-c2cc3cc(O)ccc3[nH]2)c2c(N)ncnc21	-0.17	-0.09	0.59	0.98	-0.49	-0.01
CC(=O)Nc1ccc(OC[C@](C)(O)C(=O)Nc2ccc([N+](=O)[O-])c(C(F)(F)F)c2)cc1	0.72	0.87	0.07	1	1	0.76
Oc1ccc(-c2c(-c3ccccc3)nn3c(C(F)(F)F)cc(C(F)(F)F)nc23)cc1	1	0.97	1	0.27	1	
COc1ccc(N(C(=O)Oc2c(C)cccc2C)c2ccnc(Nc3ccc(N4CCN(C)CC4)cc3)n2)c(OC)c1	0.49	0.97	0.52	1	0.04	0.72
CCN(CC)S(=O)(=O)c1cc(Nc2nccc(-c3ccnc(-c4ccc(NC(=O)NC)cc4)c3)n2)ccc1Cl	-0.42	-0.23	0.14	-0.71	-0.05	0.12
CC(C)N(CCCNC(=O)Nc1ccc(C(C)(C)C)cc1)C[C@H]1O[C@@H](n2ccc3c(N)ncnc32)[C@H](O)[C@@H]1O	0.74	0.84	1		1	0.59
O=C(COc1ccc(-c2oc3cc(O)c(C(=O)O)cc3c2C#Cc2cccc(Cl)c2)cc1)NC1CC1	0.87	0.84	0.84	-0.06	0.39	0.84
O=C(C=Cc1ccc(O)cc1)c1ccc(O)cc1O	0.72	0.82	0.64	1	0.9	0.75
Nc1c[nH]c(=O)c2cc(-c3ccccc3)sc12	0.88	0.73	-0.61	-0.86	-0.48	0.33
CCNC(=O)NCCSC[C@H]1O[C@@H](n2cnc3c(N)ncnc32)[C@H](O)[C@@H]1O	0.71	0.87	0.65	0	1	0.72
Cc1ncc(Cl)cc1NCc1ccc(C(=O)N[C@@H](CC2CCCC2)C(=O)NC2CC2)s1	0.59	0.85	0.64	0.26	0.37	0.86
CCN(c1cc(C#CCN2CCOCC2)cc(C(=O)NCc2c(C)cc(C)[nH]c2=O)c1C)[C@H]1CC[C@H](N(C)CCOC)CC1	0.57	0.74	1		1	0.81
CCCOc1ccc(CCc2nc3cc(-c4c(C)noc4C)ccc3n2CCN2CCOCC2)cc1	0.54	0.57	1	0.67	0.57	0.8
Cc1ccc(C(=O)NCCCCCC(=O)Nc2ccccc2N)cc1	1					0.95 and 0.84
O=C(NC[C@H](O)CN1CCc2ccccc2C1)c1cc(NC2COC2)ncn1	0.54	0.94	1	0.5	1	
O=c1[nH]ccc2cc(F)c(NS(=O)(=O)c3ccc(N4CC[C@@H](O)C4)s3)cc12	0.79	0.98	0.99	0.64	1	0.94
CS(=O)(=O)c1ccc(-c2cnc(NCc3ccco3)n3cnnc23)cc1	0.63	0.95	1	0.87	1	0.66
CC(=O)N1CCc2c(c(N3CCCc4cc(-c5cnn(C)c5)c(C(F)F)cc43)nn2C2CCOCC2)C1	0.61	0.51	0.79	1	1	0.89
CNC(=O)N1CCc2c(c(N3CCCc4cc(-c5cnn(C)c5)c(C(F)F)cc43)nn2C2CCOCC2)C1	0.56	0.52	1	0.36	0.76	1

Structure (SMILES)	Growth Rate (HEK-293T; replicate number 1)	Growth Rate (HEK-293T; replicate number 2)	Growth Rate (Fibroblast; replicate number 1)	Growth Rate (Fibroblast; replicate number 2)	Growth Rate (U2OS; replicate number 1)	Growth Rate (U2OS; replicate number 2)
Cc1cc2cc(NS(=O)(=O)c3ccc(C#N)cc3)ccc2n(C)c1=O	0.88		0.71	0.65	1	
Cc1ncsc1-c1ccc([C@H](C)NC(=O)[C@@H]2C[C@@H](O)CN2C(=O)[C@@H](NC(=O)COCCCOCCNC(=O)C[C@@H]2N=C(c3ccc(Cl)cc3)c3c(sc(C)c3C)-n3c(C)nnc32)C(C)(C)C)cc1	0.46	0.43	-0.26	-0.44	-0.38	0.03
Cc1ncsc1-c1ccc(CNC(=O)[C@@H]2C[C@@H](O)CN2C(=O)[C@@H](NC(=O)COCCOCCOCCNC(=O)C[C@@H]2N=C(c3ccc(Cl)cc3)c3c(sc(C)c3C)-n3c(C)nnc32)C(C)(C)C)cc1	0.01	0.16	0.23	-0.26	-0.19	0.31
FC(F)(F)Oc1ccc(Oc2ccnc(N3CCC(NC(=S)Nc4cccnc4)CC3)c2Cl)c(Cl)c1	-0.1	0.12	0.38	-0.07	0.35	0.56
Cc1nn(CC(F)(F)F)cc1Nc1ncc(Br)c(NCc2ccc(S(N)(=O)=O)cc2)n1	0.53	1	1		1	0.83
Cc1cc(-c2ccccc2)cc(C(=O)NNS(=O)(=O)c2ccccc2)c1F	0.49	0.81	1	0.27	0.87	0.89
O=C(NCCc1cc(C(=O)NO)no1)c1ccc(Cl)c(Cl)c1	0.99	1	1	0.22	0.33	1
C[C@H](Nc1cc(Cl)nc2c1cnn2[C@@H]1O[C@H](COP(=O)(O)CP(=O)(O)O)[C@@H](O)[C@H]1O)c1ccccc1F	0.88	1	0.88	1	1	
C[C@H]1CCCN1Cc1nc2cc(NC(=O)c3ccc4c(cnn4C)c3)ccc2[nH]1	0.37	0.49	1	0.78	0.16	0.68
N#Cc1ccc([C@H]2CCCC[C@H]2O)cc1C(F)(F)F	0.83	0.95	0.21	1	1	0.84
C[C@H](CN[C@@H](C(=O)Nc1ccc(-c2cnn(C)c2)cn1)c1ccccc1)c1ccc(C#N)cc1	0.04	0.3	0.34	-0.53	0.58	0.39
O=S(=O)(O)c1ccc2cc(/N=N/c3cc(S(=O)(=O)O)c4cccnc4c3O)ccc2c1	1		0.17	-0.42	-0.34	1
CCCOc1cccc(Oc2cc3c(cc2NS(=O)(=O)c2cccc(C(=O)NCCOCCOCCOCC(=O)N[C@H](C(=O)N4C[C@H](O)C[C@H]4C(=O)NCc4ccc(-c5scnc5C)cc4)C(C)(C)C)c2)n(C)c(=O)n3C)c1	0.11	0.31	1		0.91	0.63
O=C1/C(=N/Nc2ccc(S(=O)(=O)O)cc2)C(c2ccc([N+](=O)[O-])cc2)=NN1c1ccccc1	0.59	1	1		0.88	1
Cc1ncsc1-c1ccc(CNC(=O)[C@@H]2C[C@@H](O)CN2C(=O)[C@@H](NC(=O)COCC(C)(COCCOCCOCCNC(=O)C[C@@H]2N=C(c3ccc(Cl)cc3)c3c(sc(C)c3C)-n3c(C)nnc32)COCCOCCOCCNC(=O)C[C@@H]2N=C(c3ccc(Cl)cc3)c3c(sc(C)c3C)-n3c(C)nnc32)C(C)(C)C)cc1	1		1		0.43	0.95
CCCn1/c(=N/C(=O)c2cccc(C(N)=O)c2)[nH]c2ccccc21	0.77	0.9	1		1	0.99
Cn1c(=O)c2c(nc(N3CCNCC3)n2Cc2nnc(-c3ccc(Cl)c(Cl)c3)o2)n(C)c1=O	0.79	1	1		1	0.88
COc1cc(O)c2c(c1)/C=C\C[C@H](O)[C@H](O)C(=O)/C=C\C[C@H](C)OC2=O	-0.3	-0.25	-0.67	-0.85	-0.54	-0.35
